Values quoted from earlier work in US20040202731A1, “Rosmarinic acid composition” (priority 2003, published 2004).

Columns and labels:
human PMNL = conditions: concentrations of 10^-5 to 10^-3 M
rat liver microsomes = conditions: concentration of 25 μg/ml
[1] = in vivo

SMILES	stability (turns to camphor with oxidation)	formation of 5-HETE from human PMNL (human PMNL)	formation of LTB4 from human PMNL (human PMNL)	inhibition of lipid peroxidation of rat liver microsomes (rat liver microsomes)	endotoxin-induced activation of complement and concomitant formation of prostacyclin (complement)	absorption from the gastrointestinal tract and from the skin [1]
CC1(C)C2CCC1(C)C(O)C2 (stereo not drawn) [Borneol, endo-1,7,7-trimethyl-bicyclo[2.2.1]heptan-2-ol]	highly unstable					
O=C(/C=C/c1ccc(O)c(O)c1)O[C@H](Cc1ccc(O)c(O)c1)C(=O)O [Rosmarinic acid]		inhibited	inhibited	90%	suppresses	well absorbed
